Among the data in PubChem BioAssay AID1259407 (Chemical Carcinogenesis Research Information System (CCRIS), 2018) are mutagenic call values, retold here.

The data set concerns CCRIS mutagenicity, Ames/micronucleus/aberration tests. The data set is described as follows: CCRIS mutagenicity studies.
The mark [1] stands for this setting: Test System: AMES SALMONELLA TYPHIMURIUM, Strain/Indicator: TA98, Metabolic Activation: NONE, Method: STANDARD PLATE.
[2] abbreviates: Test System: AMES SALMONELLA TYPHIMURIUM, Strain/Indicator: TA98, Metabolic Activation: RAT, LIVER, S-9, AROCLOR 1254, Method: STANDARD PLATE.
[3] abbreviates: Test System: AMES SALMONELLA TYPHIMURIUM, Strain/Indicator: TA100, Metabolic Activation: NONE, Method: STANDARD PLATE.
[4] abbreviates: Test System: AMES SALMONELLA TYPHIMURIUM, Strain/Indicator: TA100, Metabolic Activation: RAT, LIVER, S-9, AROCLOR 1254, Method: STANDARD PLATE.
Where [5] appears, read: Test System: AMES SALMONELLA TYPHIMURIUM, Strain/Indicator: TA1535, Metabolic Activation: NONE, Method: STANDARD PLATE.

The source made the active and inactive calls. How the calls were made is not given here.

`N#CC(Cl)Br` (configuration not stated): the mutagenic call under setting [1] was “inactive; negative”; the mutagenic call under setting [2] is “inactive; negative”; the mutagenic call (Test System: AMES SALMONELLA TYPHIMURIUM, Strain/Indicator: TA100, Metabolic Activation: NONE, Method: FLUCTUATION TEST) is “active; positive”; the mutagenic call under setting [3] is “inactive; negative”; the mutagenic call (Test System: AMES SALMONELLA TYPHIMURIUM, Strain/Indicator: TA100, Metabolic Activation: RAT, LIVER, S-9, AROCLOR 1254, Method: FLUCTUATION TEST) was “inactive; negative”; the mutagenic call under setting [4] is “active; positive”. Also, the mutagenic call is “active; positive” under setting [5] and “active; positive” (Test System: AMES SALMONELLA TYPHIMURIUM, Strain/Indicator: TA1535, Metabolic Activation: RAT, LIVER, S-9, AROCLOR 1254, Method: STANDARD PLATE).

With `COc1ccc(N=O)cc1`, the mutagenic call under setting [1] was “active; positive”, the mutagenic call under setting [2] was “active; positive”, the mutagenic call under setting [3] was “active; positive” and the mutagenic call under setting [4] was “active; positive”.

For `CC(Br)(CBr)CBr`, the mutagenic call was “inactive; negative” (Test System: AMES SALMONELLA TYPHIMURIUM, Strain/Indicator: TA98, Metabolic Activation: NONE, Method: FLASK ASSAY); “inactive; negative” (Test System: AMES SALMONELLA TYPHIMURIUM, Strain/Indicator: TA98, Metabolic Activation: RAT, LIVER, S-9, AROCLOR 1254, Method: FLASK ASSAY); “inactive; negative” (Test System: AMES SALMONELLA TYPHIMURIUM, Strain/Indicator: TA100, Metabolic Activation: NONE, Method: FLASK ASSAY); “inactive; negative” (Test System: AMES SALMONELLA TYPHIMURIUM, Strain/Indicator: TA100, Metabolic Activation: RAT, LIVER, S-9, AROCLOR 1254, Method: FLASK ASSAY); “inactive; negative” (Test System: AMES SALMONELLA TYPHIMURIUM, Strain/Indicator: TA1535, Metabolic Activation: NONE, Method: FLASK ASSAY); “inactive; negative” (Test System: AMES SALMONELLA TYPHIMURIUM, Strain/Indicator: TA1535, Metabolic Activation: RAT, LIVER, S-9, AROCLOR 1254, Method: FLASK ASSAY). For the same molecule, the mutagenic call is “inactive; negative” (Test System: AMES SALMONELLA TYPHIMURIUM, Strain/Indicator: TA1537, Metabolic Activation: NONE, Method: FLASK ASSAY); “inactive; negative” (Test System: AMES SALMONELLA TYPHIMURIUM, Strain/Indicator: TA1537, Metabolic Activation: RAT, LIVER, S-9, AROCLOR 1254, Method: FLASK ASSAY); “inactive; negative” (Test System: AMES SALMONELLA TYPHIMURIUM, Strain/Indicator: TA1538, Metabolic Activation: NONE, Method: FLASK ASSAY); “inactive; negative” (Test System: AMES SALMONELLA TYPHIMURIUM, Strain/Indicator: TA1538, Metabolic Activation: RAT, LIVER, S-9, AROCLOR 1254, Method: FLASK ASSAY); “active; positive” (Test System: MOUSE LYMPHOMA, Strain/Indicator: L5178Y (TK+/TK-), Metabolic Activation: NONE, Method: SUSPENSION/PLATE); “active; positive” (Test System: MOUSE LYMPHOMA, Strain/Indicator: L5178Y (TK+/TK-), Metabolic Activation: RAT, LIVER, S-9, AROCLOR 1254, Method: SUSPENSION/PLATE).

For `CCNCC#CC(C)(C)OC(=O)C(O)(c1ccccc1)C1CCCCC1` (configuration not stated), the mutagenic call under setting [1] is “inactive; negative”; the mutagenic call (Test System: AMES SALMONELLA TYPHIMURIUM, Strain/Indicator: TA98, Metabolic Activation: RAT, LIVER, S-9, PHENOBARBITAL AND 5,6-BENZOFLAVONE, Method: STANDARD PLATE) was “inactive; negative”; the mutagenic call under setting [3] is “inactive; negative”; the mutagenic call (Test System: AMES SALMONELLA TYPHIMURIUM, Strain/Indicator: TA100, Metabolic Activation: RAT, LIVER, S-9, PHENOBARBITAL AND 5,6-BENZOFLAVONE, Method: STANDARD PLATE) was “inactive; negative”; the mutagenic call under setting [5] is “inactive; negative”; the mutagenic call (Test System: AMES SALMONELLA TYPHIMURIUM, Strain/Indicator: TA1535, Metabolic Activation: RAT, LIVER, S-9, PHENOBARBITAL AND 5,6-BENZOFLAVONE, Method: STANDARD PLATE) was “inactive; negative”. In addition, the mutagenic call runs as follows: (Test System: AMES SALMONELLA TYPHIMURIUM, Strain/Indicator: TA1537, Metabolic Activation: NONE, Method: STANDARD PLATE) “inactive; negative”; (Test System: AMES SALMONELLA TYPHIMURIUM, Strain/Indicator: TA1537, Metabolic Activation: RAT, LIVER, S-9, PHENOBARBITAL AND 5,6-BENZOFLAVONE, Method: STANDARD PLATE) “inactive; negative”; (Test System: E. COLI, Strain/Indicator: WP2 UVRA, Metabolic Activation: NONE, Method: STANDARD PLATE) “inactive; negative”; (Test System: E. COLI, Strain/Indicator: WP2 UVRA, Metabolic Activation: RAT, LIVER, S-9, PHENOBARBITAL AND 5,6-BENZOFLAVONE, Method: STANDARD PLATE) “inactive; negative”.

As for `Oc1c2ccccc2c2ccc3cccc4ccc1c2c43`, for the setting “Test System: CHINESE HAMSTER V-79, Strain/Indicator: V-79/8-AZAGUANINE, Metabolic Activation: NONE, Method: STANDARD PLATE”, the mutagenic call is “active; positive”.

On to `Cc1ccc(N=CN(C)C=Nc2ccc(C)cc2C)c(C)c1`, for which the mutagenic call is, setting by setting: (Test System: AMES SALMONELLA TYPHIMURIUM, Strain/Indicator: TA97, Metabolic Activation: NONE, Method: STANDARD PLATE) “inactive; negative”; (Test System: AMES SALMONELLA TYPHIMURIUM, Strain/Indicator: TA97, Metabolic Activation: RAT, LIVER, S-9, AROCLOR 1254, Method: STANDARD PLATE) “inactive; negative”; under setting [1], “inactive; negative”; under setting [2], “inactive; negative”; under setting [3], “inactive; negative”; under setting [4], “inactive; negative”. Further, the mutagenic call was “inactive; negative” (Test System: AMES SALMONELLA TYPHIMURIUM, Strain/Indicator: TA102, Metabolic Activation: NONE, Method: STANDARD PLATE) and “inactive; negative” (Test System: AMES SALMONELLA TYPHIMURIUM, Strain/Indicator: TA102, Metabolic Activation: RAT, LIVER, S-9, AROCLOR 1254, Method: STANDARD PLATE).

With `NC(=O)N/N=C(/CCN1CCCCC1)c1ccc([N+](=O)[O-])o1`, the mutagenic call reads like this: (Test System: E. COLI, Strain/Indicator: WP2, Metabolic Activation: NONE, Method: SPOT) “active; positive”; (Test System: E. COLI, Strain/Indicator: WP2 UVRA, Metabolic Activation: NONE, Method: SPOT) “active; positive”.

Turning to `CS(=O)CC[C@H](N)C(=O)O.Cc1ccc(NCC(=O)N(CC(=O)O)CC(=O)O)c(C)c1.[H+].[H+].[Pt]`, for the setting “Test System: MOUSE LYMPHOMA, Strain/Indicator: L5178Y(LY-R) (HGPRT)/6-THIOGUANINE, Metabolic Activation: NONE”, the mutagenic call was “active; positive”.

For the molecule `O=C1CCC(=O)N1c1ccc(Cl)cc1`, the mutagenic call is, setting by setting: under setting [1], “inactive; negative”; under setting [2], “inactive; negative”; under setting [3], “inactive; negative”; under setting [4], “inactive; negative”.

`C[As](O)O`: the mutagenic call was “active; positive in all subjects only at highest dose” (End Point: In vitro micronucleus, Test System: Human peripheral lymphocytes, Metabolic Activation: None) and “active; positive” (Test System: Mouse lymphoma, Strain/Indicator: L5178Y (TK+/TK-), Metabolic Activation: None, Method: Microwell).
